Results reported in PMC3949521 (Acta Crystallographica Section D: Biological Crystallography, 2014).

Molecular target: T1, B. megaterium PBGD (Priestia megaterium, UniProt Q8GCA8)
T1 construct: gene hemC; His tag removed for crystals; gene encodes 310 residues; about 35 kDa; monomer; cofactor on Cys241; residues 42-62 disordered
Test: X-ray crystal structure, […] and […] Å
Assay type: binding
Conditions: covalent (thioether to Cys241), pH 6.5-6.8, partial occupancy

T1 sequence (Q8GCA8 entry or part of it): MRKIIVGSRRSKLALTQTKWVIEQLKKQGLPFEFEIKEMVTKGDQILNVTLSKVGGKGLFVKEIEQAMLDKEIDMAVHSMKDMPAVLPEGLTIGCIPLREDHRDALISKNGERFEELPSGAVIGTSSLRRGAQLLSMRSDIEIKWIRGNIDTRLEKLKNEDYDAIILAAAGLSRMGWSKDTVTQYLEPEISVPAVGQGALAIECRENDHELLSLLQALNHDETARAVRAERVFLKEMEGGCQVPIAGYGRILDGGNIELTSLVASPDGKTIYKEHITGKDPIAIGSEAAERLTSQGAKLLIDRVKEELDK

## N[C@@H](CSCc1[nH]c(Cc2[nH]cc(CCC(=O)O)c2CC(=O)O)c(CCC(=O)O)c1CC(=O)O)C(=O)O [dipyrromethane cofactor]
X-ray cannot tell dipyrromethane from dipyrromethene, PDB also 4mlq
  X-ray crystal structure, 1.46 and 1.60 Å: one of which corresponds to the fully reduced dipyrromethane

## N[C@@H](CSCc1[nH]c(CC2NC(=O)C(CCC(=O)O)=C2CC(=O)O)c(CCC(=O)O)c1CC(=O)O)C(=O)O (some centres unmarked) [dipyrromethanone]
Shared with reduced conformer, inactive oxidized form, PDB also 4mlv
  X-ray crystal structure, 1.46 and 1.60 Å: the 'oxidized' conformation of the cofactor is actually the partly reduced dipyrromethanone form
